From patent publication US20260234135A1, “CRYSTALLINE FORMS OR SALTS OF A DEUTERATED COMPOUND” (ALEBUND PHARMACEUTICALS (HONG KONG) LIMITED, priority 2023, published 2026)
In brackets after ≈: the same amount, converted by molar mass. Read-outs that look alike come from different tables or passages of the source.

Assays:
[1] = Approximate solubility in single solvents at RT; assay type: physicochemical
Experimental: Approximately 2 mg of sample was added into a 3-mL glass vial. Corresponding solvents were added stepwise (50 μL→50 μL→100 μL→200 μL→600 μL→1000 μL) into the vials until the solids were dissolved visually or a total volume of 2 mL was reached. The ranges of approximate solubility were calculated according to the mass of sample, volume of solvent and observation. Result summarized in Table 3 was used to guide the solvent selection in polymorph screening.

[2] = Hygroscopicity evaluation by DVS at 25° C.; assay type: physicochemical
Experimental: DVS was measured via a SMS (Surface Measurement Systems) DVS Intrinsic. The relative humidity at 25° C. were calibrated against deliquescence point of LiCl, Mg(NO3)2 and KCl.

[3] = for HPLC Purity (area %), main peak RRT 1.00 / HPLC Reults of initial (%): listed as Free acid Form B
physchem = conditions: thermodynamic from solid
[4] = SGF, 37 °C, simulated gastric fluid
[5] = pH 4.5 (KAc) buffer, 37 °C, pH 4.5, aqueous buffer
[6] = pH 6.8 buffer (K2HPO3 + KH2PO3), 37 °C, pH 6.8, aqueous buffer
[7] = pH 8.0 buffer (K2HPO3 + KH2PO3), 37 °C, pH 8, aqueous buffer

## [2H]C([2H])(Cc1nc(-c2ccccc2)oc1C)Oc1ccc(C[C@H](OC)C(=O)O)c2sccc12 [AP-303 (818159-01-A)]
[1]; 1,4-Dioxane
  Solubility: S > 46.0 mg/mL
[1]; DMSO
  Solubility: S > 44.0 mg/mL
[1]; H2O
  Solubility: S < 1.2 mg/mL
[1]; THF
  Solubility: S > 42.0 mg/mL
[1]; n-Heptane
  Solubility: S < 1.3 mg/mL

## [2H]C([2H])(Cc1nc(-c2ccccc2)oc1C)Oc1ccc(C[C@H](OC)C(=O)O)c2sccc12 [free acid Form B]
[2]; DVS, 25° C.
  Hygroscopicity: non-hygroscopic
  Water uptake up to 80% RH: 0.07%
[2]; XRPD after DVS
  Form change after DVS test: No form change
[3]; 40° C./75% RH, 2 weeks
  Area (%) peak 1, RRT 0.88: 0.20%
  Area (%) peak 2, RRT 1.00 (main peak): 99.50%
  Area (%) peak 3, RRT 1.14: 0.11%
  Area (%) peak 4, RRT 1.34: 0.20%
[3]; 40° C./75% RH, 4 weeks
  Area (%) peak 1, RRT 0.88: 0.23%
  Area (%) peak 2, RRT 1.00 (main peak): 99.47%
  Area (%) peak 3, RRT 1.14: 0.11%
  Area (%) peak 4, RRT 1.34: 0.19%
[3]; 40° C./75% RH, 8 weeks
  Area (%) peak 1, RRT 0.88: 0.20%
  Area (%) peak 2, RRT 1.00 (main peak): 99.52%
  Area (%) peak 3, RRT 1.14: 0.09%
  Area (%) peak 4, RRT 1.34: 0.19%
[3]; 40° C./75% RH/open, 2 weeks
  HPLC Purity (area %), main peak RRT 1.00: 99.50 area %
[3]; 40° C./75% RH/open, 4 weeks
  HPLC Purity (area %), main peak RRT 1.00: 99.47 area %
  HPLC Reults of initial (%): 100.00%
[3]; 40° C./75% RH/open, 8 weeks
  HPLC Purity (area %), main peak RRT 1.00: 99.52 area %
  HPLC Reults of initial (%): 100.05%
[3]; 60° C., 2 weeks
  Area (%) peak 1, RRT 0.88: 0.20%
  Area (%) peak 2, RRT 1.00 (main peak): 99.49%
  Area (%) peak 3, RRT 1.14: 0.11%
  Area (%) peak 4, RRT 1.34: 0.20%
[3]; 60° C., 4 weeks
  Area (%) peak 1, RRT 0.88: 0.22%
  Area (%) peak 2, RRT 1.00 (main peak): 99.47%
  Area (%) peak 3, RRT 1.14: 0.11%
  Area (%) peak 4, RRT 1.34: 0.20%
[3]; 60° C., 8 weeks
  Area (%) peak 1, RRT 0.88: 0.20%
  Area (%) peak 2, RRT 1.00 (main peak): 99.51%
  Area (%) peak 3, RRT 1.14: 0.10%
  Area (%) peak 4, RRT 1.34: 0.20%
[3]; 60° C./close, 2 weeks
  HPLC Purity (area %), main peak RRT 1.00: 99.49 area %
[3]; 60° C./close, 4 weeks
  HPLC Purity (area %), main peak RRT 1.00: 99.47 area %
  HPLC Reults of initial (%): 100.00%
[3]; 60° C./close, 8 weeks
  HPLC Purity (area %), main peak RRT 1.00: 99.51 area %
  HPLC Reults of initial (%): 100.04%
[3]; Initial
  Area (%) peak 1, RRT 0.88: 0.23%
  Area (%) peak 2, RRT 1.00 (main peak): 99.47%
  Area (%) peak 3, RRT 1.14: 0.10%
  Area (%) peak 4, RRT 1.34: 0.20%
  HPLC Purity (area %), main peak RRT 1.00: 99.47 area %
physchem; FaSSIF-V2, 37 °C, fassif
  solubility at 2 h: 280 µg/mL (≈ 637 µM)
  solubility at 24 h: 290 µg/mL (≈ 660 µM)
physchem; FeSSIF-V2, 37 °C, fessif
  solubility at 2 h: 630 µg/mL (≈ 1430 µM)
  solubility at 24 h: 650 µg/mL (≈ 1480 µM)
physchem; [4]
  solubility at 2 h: 11 µg/mL (≈ 25 µM)
  solubility at 24 h: 9.6 µg/mL (≈ 21.8 µM)
physchem; [5]
  solubility at 2 h: 0.3 µg/mL (≈ 0.683 µM)
  solubility at 24 h: 0.4 µg/mL (≈ 0.91 µM)
physchem; [6]
  solubility at 2 h: 150 µg/mL
  solubility at 24 h: 170 µg/mL
physchem; [7]
  solubility at 2 h: 1900 µg/mL
  solubility at 24 h: 1900 µg/mL
physchem; water, 37 °C
  solubility at 2 h: 36 µg/mL (≈ 81.9 µM)
